Experiments:
Type in all cases: cell-based, human
Conditions in all cases: 48 hours
[1] = system: breast cancer cell line ER+/PR+/HER2+ (BT474); experiment: MTT proliferation, breast cancer cell line ER+/PR+/HER2+
Description: (§1) All cells were cultured in wells under vendor-recommended conditions and exposed to different concentrations of aprepitant for 48 hours. In each case a group of wells of cells were used to which no treatment was applied and which were considered as controls. At 48 hours the number of cells was measured. To measure cell viability, the cytotoxicity of drugs in culture was evaluated using the 3-(4,5-Dimethyl-2-thiazolyl)-2,5-diphenyl-2H-tetrazolium bromide (MTT) reduction assay. This assay assesses cell viability through the indirect measurement of the activity of reductases that convert yellow soluble MTT into purple insoluble formazan salts. As MTT can only be reduced when these enzymes are active, the reaction is used as an indicator of the cell metabolic competence and, therefore, of viability. A variable number of cells (depending on the cell line) were seeded in 96 multi-well plates and grown during 24 hours. The following day, the culture medium was aspirated and fresh culture medium with the drug dissolved was added to the wells. After 24 hours or 48 hours cell viability was measurement by adding 10 μl of a 5 mg/ml MTT solution (M5655; Sigma-Aldrich) and 100 μl of HCl 0.01M-SDS 10% solution 4 hours later. After 24 hours, the absorbance was measured at 595 nm, using a multi-well plate reader (iMark, Bio-rad). Each condition was tested 5 times, obtaining 5 values of absorbance. All sample measurements were corrected using the blank (culture medium without cells) mean absorbance value, and normalized to positive control to determinate relative cell viability for each condition at 24 and 48 hours.

[2] = system: H460; experiment: MTT proliferation, H460
Excerpt: (§2) EGFR, ALK and ROS1 are key molecular factors that may be used to determine pathological classification, prognosis, therapeutics and behaviour in patients with lung cancer. EGFR, ALK and ROS1 are biomarkers routinely analysed in the clinical practice of the management of patients with NSCLC. NSCLC with molecular profile EGFR-/ALK-/ROS1- presents a better response to treatment with the NK1 inhibitor aprepitant, compared to lung cancer with different profiles (in particular, EGFR+/ALK-/ROS1- and EGFR-/ALK+/ROS1-, in which EGFR and ALK respectively contain mutations relative to their wild type gene). Commercial lines of lung cancer were used as shown in Table 2 together with their molecular profile. The molecular profile of the cancer cell lines was determined by sequencing and can be consulted in the Cancer Cell Line Encyclopaedia database of public access available at the url: https://portals.broadinstitute.org/ccle All cells were cultured in wells under vendor-recommended conditions and exposed to different concentrations of aprepitant for 48 hours. In each case a group of wells of cells were used to which no treatment was applied and which were considered as controls. At 48 hours the number of cells was measured. Eight cell lines of human were used for the study of NK1 inhibitors (Table 3). All of them were maintained in culture in their respective culture media (Gibco,Thermo Fisher Scientific) supplemented with 10% foetal bovine serum (FBS) (Gibco, Thermo Fisher Scientific), 2 mM L-Glutamine (Gln) (Sigma-Aldrich, Merk), and […] and […] Gibco, Thermo Fisher Scientific) in a humidified incubator at 37° C. and 5% CO2. Cell culture media used are Dulbecco's Modified Eagle Medium (DMEM), and RPMI Medium 1640 (RPMI-1640). To measure cell viability, the cytotoxicity of drugs in culture was evaluated using the 3-(4,5-Dimethyl-2-thiazolyl)-2,5-diphenyl-2H-tetrazolium bromide (MTT) reduction assay. This assay assesses cell viability through the indirect measurement of the activity of reductases that convert yellow soluble MTT into purple insoluble formazan salts. As MTT can only be reduced when these enzymes are active, the reaction is used as an indicator of the cell metabolic competence and, therefore, of viability. A variable number of cells (depending on the cell line) were seeded in 96 multi-well plates and grown during 24 hours. The following day, the culture medium was aspirated and fresh culture medium with the drug dissolved was added to the wells. After 24 hours or 48 hours cell viability was measurement by adding 10 μl of a 5 mg/ml MTT solution (M5655; Sigma-Aldrich) and 100 μl of HCl 0.01M-SDS 10% solution 4 hours later. After 24 hours, the absorbance was measured at 595 nm, using a multi-well plate reader (iMark, Bio-rad). Each condition was tested 5 times, obtaining 5 values of absorbance. All sample measurements were corrected using the blank (culture medium without cells) mean absorbance value, and normalized to positive control to determinate relative cell viability for each condition at 24 and 48 hours.

[3] = system: H441; experiment: MTT proliferation, H441
Excerpt: as §2

[4] = system: lung cancer cell lines with molecular profile EGFR−/ALK+/ROS1− (H322, H332); experiment: MTT proliferation, NSCLC cell lines with EGFR−/ALK+/ROS1− profile
Excerpt: as §2

[5] = system: breast cancer cell line ER−/PR−/HER2+ (SkBr3); experiment: MTT proliferation, breast cancer cell line ER−/PR−/HER2+
Description: as §1

With `C[C@@H](O[C@H]1OCCN(Cc2nc(=O)[nH][nH]2)[C@H]1c1ccc(F)cc1)c1cc(C(F)(F)F)cc(C(F)(F)F)c1` [Aprepitant] the Mean proliferation ([1]; aprepitant 0.3 μM) was 100.88, the Mean proliferation ([1]; aprepitant 1 μM) was 101.83 and the Mean proliferation ([1]; aprepitant 3 μM) was 91.36. For the same compound, the Mean proliferation ([1]; aprepitant 10 μM) was 85.45, the Mean proliferation ([1]; aprepitant 20 μM) was 80.23 and the Mean proliferation ([1]; aprepitant 30 μM) was 57.51. For the same compound, the Mean proliferation ([1]; aprepitant 40 μM) was 43.65, the Mean proliferation ([1]; aprepitant 50 μM) was 23.8 and the Mean proliferation ([1]; aprepitant 60 μM) was 9.29. For the same compound, the Mean proliferation ([2]; aprepitant 1 μM) was 91.72, the Mean proliferation ([2]; aprepitant 3 μM) was 100.26 and the Mean proliferation ([2]; aprepitant 5 μM) was 67.81. It also gave a Mean proliferation ([2]; aprepitant 10 μM) of 56.01, a Mean proliferation ([2]; aprepitant 20 μM) of 31.24 and a Mean proliferation ([2]; aprepitant 30 μM) of 18.27. It also gave a Mean proliferation ([2]; aprepitant 40 μM) of 14.74, a Mean proliferation ([2]; aprepitant 50 μM) of −0.95 and a Mean proliferation ([2]; aprepitant 60 μM) of −1.95. For the same compound, the Mean proliferation ([3]; aprepitant 1 μM) was 100.6, the Mean proliferation ([3]; aprepitant 3 μM) was 90.97 and the Mean proliferation ([3]; aprepitant 5 μM) was 64.10. For the same compound, the Mean proliferation ([3]; aprepitant 10 μM) was 61.08, the Mean proliferation ([3]; aprepitant 20 μM) was 53.64 and the Mean proliferation ([3]; aprepitant 30 μM) was 37.56. The Mean proliferation ([3]; aprepitant 40 μM) was 20.50, the Mean proliferation ([3]; aprepitant 50 μM) was 3.14 and the Mean proliferation ([3]; aprepitant 60 μM) was 10.83. It also gave a Mean proliferation ([4]; aprepitant 1 μM) of 102.88, a Mean proliferation ([4]; aprepitant 3 μM) of 92.41 and a Mean proliferation ([4]; aprepitant 5 μM) of 105.07. For the same compound, the Mean proliferation ([4]; aprepitant 10 μM) was 108.06, the Mean proliferation ([4]; aprepitant 20 μM) was 99 and the Mean proliferation ([4]; aprepitant 30 μM) was 88.22. For the same compound, the Mean proliferation ([4]; aprepitant 40 μM) was 68.94, the Mean proliferation ([4]; aprepitant 50 μM) was 37.3 and the Mean proliferation ([4]; aprepitant 60 μM) was 11.67. The Mean proliferation ([5]; aprepitant 0.3 μM) was 99.8, the Mean proliferation ([5]; aprepitant 1 μM) was 100.23 and the Mean proliferation ([5]; aprepitant 3 μM) was 95.65. It also gave a Mean proliferation ([5]; aprepitant 10 μM) of 81.8, a Mean proliferation ([5]; aprepitant 20 μM) of 65.97 and a Mean proliferation ([5]; aprepitant 30 μM) of 45.14. For the same compound, the Mean proliferation ([5]; aprepitant 40 μM) was 32.62, the Mean proliferation ([5]; aprepitant 50 μM) was 23.78 and the Mean proliferation ([5]; aprepitant 60 μM) was 12.87.

Reference: US20240082273A1, “NEUROKININ INHIBITORS SUCH AS APREPITANT FOR TREATING NON SMALL CELL LUNG CARCINOMA OR BREAST CANCER WITHOUT MUTATIONS” (priority 2020, published 2024)
